Measured values as given in the NIST ThermoML archive (doi:10.1021/je400207t).
Where “and” joins values, the source holds several entries; their conditions need not be identical. Identical values can stand only once. Numbers after ± are expanded uncertainties.

Tests used:
[1] = Molar enthalpy of transition or fusion; details: DSC
[2] = for vapor or sublimation pressure: Calculated from knudsen effusion weight loss

SMILES: O[C@@H]1[C@@H](O)[C@@H]2OC[C@@H](O2)[C@H]1O [1,6-anhydro-β-D-glucopyranose]
- Molar enthalpy of transition or fusion ([1]; Crystal 1): 0.789 ± 0.0956 kcal/mol
- Molar enthalpy of transition or fusion ([1]; Crystal 2): 5.54 ± 0.215 kcal/mol
- vapor or sublimation pressure ([2]; 361.13 K, Crystal 2): 5.35e-05 ± 1e-05 kPa and 6.29e-05 ± 1e-05 kPa and 5.88e-05 ± 1e-05 kPa
- vapor or sublimation pressure ([2]; 363.14 K, Crystal 2): 7.32e-05 ± 1e-05 kPa and 7.78e-05 ± 1e-05 kPa
- vapor or sublimation pressure ([2]; 365.22 K, Crystal 2): 0.000102 ± 1.1e-05 kPa and 0.000101 ± 1.1e-05 kPa and 9.67e-05 ± 1.1e-05 kPa
- vapor or sublimation pressure ([2]; 367.16 K, Crystal 2): 0.00012 ± 1.1e-05 kPa and 0.000119 ± 1.1e-05 kPa and 0.000113 ± 1.1e-05 kPa
- vapor or sublimation pressure ([2]; 369.14 K, Crystal 2): 0.000164 ± 1.2e-05 kPa and 0.000144 ± 1.1e-05 kPa and 0.000152 ± 1.1e-05 kPa
- vapor or sublimation pressure ([2]; 371.15 K, Crystal 2): 0.000183 ± 1.2e-05 kPa and 0.000192 ± 1.2e-05 kPa
- vapor or sublimation pressure ([2]; 373.15 K, Crystal 2): 0.000247 ± 1.3e-05 kPa and 0.000231 ± 1.3e-05 kPa
- vapor or sublimation pressure ([2]; 375.13 K, Crystal 2): 0.000317 ± 1.5e-05 kPa and 0.00028 ± 1.4e-05 kPa and 0.000289 ± 1.4e-05 kPa
- vapor or sublimation pressure ([2]; 377.22 K, Crystal 2): 0.000407 ± 1.8e-05 kPa and 0.000368 ± 1.6e-05 kPa and 0.000396 ± 1.7e-05 kPa
- vapor or sublimation pressure ([2]; 379.15 K, Crystal 2): 0.000476 ± 2e-05 kPa and 0.000472 ± 1.9e-05 kPa and 0.000458 ± 1.9e-05 kPa
- Normal melting temperature ([2]; Crystal 1, DTA): 182.2 ± 0.4 °C
- Triple point temperature ([2]; Crystal 2, DTA): 384.9 ± 0.7 K
